Reference: PMC11301636, “Supramolecular delivery of dinuclear ruthenium and osmium MCU inhibitors” (Inorganic Chemistry Frontiers, 2024)

How the values were obtained:
[1] = molecular target: T1, mitochondrial calcium uniporter (MCU) (Homo sapiens, UniProt Q8NE86); assay: mCa2+ uptake inhibition in digitonin-permeabilized HEK293T cells (Calcium Green 5N); format: cell-based
T1 sequence (Q8NE86 51-351): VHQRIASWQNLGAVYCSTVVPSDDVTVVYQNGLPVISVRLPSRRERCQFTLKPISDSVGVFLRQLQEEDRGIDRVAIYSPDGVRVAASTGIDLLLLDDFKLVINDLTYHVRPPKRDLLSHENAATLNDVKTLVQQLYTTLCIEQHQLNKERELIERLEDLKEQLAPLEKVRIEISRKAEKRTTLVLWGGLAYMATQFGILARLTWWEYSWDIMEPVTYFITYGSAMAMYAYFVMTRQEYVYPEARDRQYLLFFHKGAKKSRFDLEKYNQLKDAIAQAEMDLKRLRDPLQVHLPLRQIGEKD

[2] = molecular target: T1, mitochondrial calcium uniporter (MCU); assay: mCa2+ uptake inhibition in digitonin-permeabilized HEK293T cells; format: cell-based

IC50 [1]: 5.7 ± 0.3 nM | IC50 [2]: 90.9 ± 1.3 nM
Substance: Os245
